Test results from patent US9828379B2 (priority 2013, dated 2017).

Assays:
Experiment in all cases: In vitro competitive activity-based protein profiling (Table 2, % inhibition at 1 μM)
Assay type in all cases: biochemical
ABHD6 = target: T1, ABHD6 (Mus musculus, UniProt Q8R2Y0); conditions: read-out: % Inhibition at 1 μM ABHD6
T1 sequence (Q8R2Y0 1-336): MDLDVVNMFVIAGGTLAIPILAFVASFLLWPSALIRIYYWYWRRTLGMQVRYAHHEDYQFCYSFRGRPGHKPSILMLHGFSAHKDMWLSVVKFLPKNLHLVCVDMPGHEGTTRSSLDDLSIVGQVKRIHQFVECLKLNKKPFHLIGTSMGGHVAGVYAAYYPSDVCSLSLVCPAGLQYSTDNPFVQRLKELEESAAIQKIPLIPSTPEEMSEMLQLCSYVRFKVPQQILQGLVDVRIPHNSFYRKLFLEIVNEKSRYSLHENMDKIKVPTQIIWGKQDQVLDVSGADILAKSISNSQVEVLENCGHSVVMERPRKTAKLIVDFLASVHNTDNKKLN
Description: (§1) After 30 min, FP—Rh (1.0 μL, 50 μM in DMSO) was added and the mixture was incubated for another 30 min at 37° C. Reactions were quenched with SDS loading buffer (50 μL-4×) and run on SDS-PAGE. Following gel imaging, serine hydrolase activity was determined by measuring fluorescent intensity of gel bands corresponding to MAGL, ABHD6 and FAAH using ImageJ 1.43 u software.
(§2) hMAGL was expressed in HEK293T cells according to previously reported methods (see Niphakis, Long, and Blankman, J. L., et al. (2007) Chem. Biol. 14:1347-1356). Cell lysates were diluted with mock proteomes for use in competitive ABPP experiments.

FAAH = target: T2, FAAH (Mus musculus, UniProt O08914); conditions: read-out: % Inhibition at 1 μM FAAH
T2 sequence (O08914 1-579): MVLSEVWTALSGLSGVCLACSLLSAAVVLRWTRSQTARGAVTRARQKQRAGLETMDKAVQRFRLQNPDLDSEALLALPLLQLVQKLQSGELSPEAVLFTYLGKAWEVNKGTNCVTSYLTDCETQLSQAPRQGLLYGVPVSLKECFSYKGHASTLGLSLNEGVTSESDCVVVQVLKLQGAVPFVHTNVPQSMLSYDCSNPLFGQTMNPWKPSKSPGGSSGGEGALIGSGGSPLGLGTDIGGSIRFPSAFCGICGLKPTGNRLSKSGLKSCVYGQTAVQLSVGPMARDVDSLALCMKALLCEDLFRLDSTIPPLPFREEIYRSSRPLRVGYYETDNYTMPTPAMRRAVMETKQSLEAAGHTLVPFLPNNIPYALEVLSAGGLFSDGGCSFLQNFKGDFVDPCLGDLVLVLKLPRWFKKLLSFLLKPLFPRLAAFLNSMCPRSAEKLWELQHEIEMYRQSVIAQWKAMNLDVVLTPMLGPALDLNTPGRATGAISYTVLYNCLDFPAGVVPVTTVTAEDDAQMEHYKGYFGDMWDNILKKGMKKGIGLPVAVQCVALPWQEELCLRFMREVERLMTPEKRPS
Description: as §1, §2

MAGL = target: T3, MAGL (Mus musculus, UniProt O35678); conditions: read-out: % Inhibition at 1 μM MAGL
T3 sequence (O35678 1-303): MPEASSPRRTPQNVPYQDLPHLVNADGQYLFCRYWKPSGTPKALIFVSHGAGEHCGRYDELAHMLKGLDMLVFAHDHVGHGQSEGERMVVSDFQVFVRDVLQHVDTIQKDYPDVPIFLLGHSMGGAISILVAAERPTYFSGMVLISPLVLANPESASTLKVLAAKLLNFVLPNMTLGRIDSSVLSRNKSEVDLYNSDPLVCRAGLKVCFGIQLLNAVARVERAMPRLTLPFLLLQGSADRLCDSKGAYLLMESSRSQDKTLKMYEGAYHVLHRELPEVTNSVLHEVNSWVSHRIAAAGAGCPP
Description: After 30 min, FP—Rh (1.0 μL, 50 μM in DMSO) was added and the mixture was incubated for another 30 min at 37° C. Reactions were quenched with SDS loading buffer (50 μL-4×) and run on SDS-PAGE.
Cell lysates were diluted with mock proteomes for use in competitive ABPP experiments.

| SMILES | inhibition at 1 µM (ABHD6) [%] | inhibition at 1 µM (FAAH) [%] | inhibition at 1 µM (MAGL) [%] |
| --- | --- | --- | --- |
| Cc1cccc(-c2cc(CN3CC4CN(C(=O)ON5C(=O)CCC5=O)CC4C3)n(C)n2)c1 (stereo not drawn) [Example 199, 2,5-dioxopyrrolidin-1-yl 5-((1-methyl-3-(m-tolyl)-1H-pyrazol-5-yl)methyl)hexahydropyrrolo[3,4-c]pyrrole-2(1H)-carboxylate] | < 25 | < 25 | 25 to 75 |
| O=C(OC(C(F)(F)F)C(F)(F)F)N1CC2CN(Cc3ccc(C(=O)N4CCOCC4)c(OC(F)(F)F)c3)CC2C1 (stereo not drawn) [Example 191, 1,1,1,3,3,3-hexafluoropropan-2-yl 5-(4-(morpholine-4-carbonyl)-3-(trifluoromethoxy)benzyl)hexahydropyrrolo[3,4-c]pyrrole-2(1H)-carboxylate] | < 25 | < 25 | < 25 |
| CS(=O)(=O)N1CCN(c2cc(Cl)ccc2CN2CC3CN(C(=O)ON4C(=O)CCC4=O)CC3C2)CC1 (stereo not drawn) [Example 110, 2,5-Dioxopyrrolidin-1-yl 5-[[4-chloro-2-(4-methanesulfonylpiperazin-1-yl)phenyl]methyl]-octahydropyrrolo[3,4-c]pyrrole-2-carboxylate] | < 25 | < 25 | < 25 |
| CCN1CCN(c2c(C)cccc2CN2CC3CN(C(=O)ON4C(=O)CCC4=O)CC3C2)CC1 (stereo not drawn) [Example 139, 2,5-dioxopyrrolidin-1-yl 5-[[2-(4-ethylpiperazin-1-yl)-3-methylphenyl]methyl]-octahydropyrrolo[3,4-c]pyrrole-2-carboxylate] | < 25 | < 25 | < 25 |
| CC(C)c1cc(CN2CC3CN(C(=O)ON4C(=O)CCC4=O)CC3C2)n(C2CCOCC2)n1 (stereo not drawn) [Example 124, 2,5-Dioxopyrrolidin-1-yl 5-[[1-(oxan-4-yl)-3-(propan-2-yl)-1H-pyrazol-5-yl]methyl]-octahydropyrrolo[3,4-c]pyrrole-2-carboxylate] | < 25 | < 25 | 25 to 75 |
| CC1COCCN1c1ccc(CN2CC3CN(C(=O)ON4C(=O)CCC4=O)CC3C2)c(F)c1 (stereo not drawn) [Example 100, 2,5-Dioxopyrrolidin-1-yl 5-[[2-fluoro-4-(3-methylmorpholin-4-yl)phenyl]methyl]-octahydropyrrolo[3,4-c]pyrrole-2-carboxylate] | < 25 | < 25 | 25 to 75 |
| O=C(ON1C(=O)CCC1=O)N1CC2CN(Cc3ccc(C(=O)N4CCC4)cc3Cl)CC2C1 (stereo not drawn) [Example 165, 2,5-dioxopyrrolidin-1-yl5-(4-(azetidine-1-carbonyl)-2-chlorobenzyl)-hexahydropyrrolo[3,4-c]pyrrole-2(1H)-carboxylate] | < 25 | < 25 | 25 to 75 |
| CC(C)n1cc(CN2CC3CN(C(=O)ON4C(=O)CCC4=O)CC3C2)c(C2CCN(S(C)(=O)=O)CC2)n1 (stereo not drawn) [Example 120, 2,5-Dioxopyrrolidin-1-yl 5-[[3-(1-methanesulfonylpiperidin-4-yl)-1-(propan-2-yl)-1H-pyrazol-4-yl]methyl]-octahydropyrrolo[3,4-c]pyrrole-2-carboxylate] | < 25 | < 25 | < 25 |
| CC(=O)N1CCN(c2cc(Cl)ccc2CN2CC3CN(C(=O)ON4C(=O)CCC4=O)CC3C2)CC1 (stereo not drawn) [Example 96, 2,5-Dioxopyrrolidin-1-yl 5-[[2-(4-acetylpiperazin-1-yl)-4-chlorophenyl]methyl]-octahydropyrrolo[3,4-c]pyrrole-2-carboxylate] | < 25 | < 25 | < 25 |
| O=C(ON1C(=O)CCC1=O)N1CC2CN(Cc3ccc(Cl)cc3N3Cc4cccnc4C3)CC2C1 (stereo not drawn) [Example 107, 2,5-Dioxopyrrolidin-1-yl 5-[(4-chloro-2-[5H,6H,7H-pyrrolo[3,4-b]pyridin-6-yl]phenyl)methyl]-octahydropyrrolo[3,4-c]pyrrole-2-carboxylate] | 25 to 75 | 25 to 75 | 25 to 75 |
| Cc1cc(CN2CC3CN(C(=O)ON4C(=O)CCC4=O)CC3C2)n(C(C)C)n1 (stereo not drawn) [Example 121, 2,5-Dioxopyrrolidin-1-yl 5-[[3-methyl-1-(propan-2-yl)-1H-pyrazol-5-yl]methyl]-octahydropyrrolo[3,4-c]pyrrole-2-carboxylate] | < 25 | < 25 | < 25 |
| O=C(ON1C(=O)CCC1=O)N1CC2CN(Cc3ccc(Cl)cc3N3CCC(C(=O)N4CCCC4)CC3)CC2C1 (stereo not drawn) [Example 111, 2,5-Dioxopyrrolidin-1-yl 5-[(4-chloro-2-[4-[(pyrrolidin-1-yl)carbonyl]piperidin-1-yl]phenyl)methyl]-octahydropyrrolo[3,4-c]pyrrole-2-carboxylate] | < 25 | < 25 | 25 to 75 |
| O=C(ON1C(=O)CCC1=O)N1CC2CN(Cc3ccc(Cl)cc3N3CCCC3)CC2C1 (stereo not drawn) [Example 94, 2,5-Dioxopyrrolidin-1-yl 5-[[4-chloro-2-(pyrrolidin-1-yl)phenyl]methyl]-octahydropyrrolo[3,4-c]pyrrole-2-carboxylate] | < 25 | 25 to 75 | 25 to 75 |
| CC(=O)N1CCC(n2nc(C)cc2CN2CC3CN(C(=O)ON4C(=O)CCC4=O)CC3C2)CC1 (stereo not drawn) [Example 122, 2,5-Dioxopyrrolidin-1-yl 5-[[1-(1-acetylpiperidin-4-yl)-3-methyl-1H-pyrazol-5-yl]methyl]-octahydropyrrolo[3,4-c]pyrrole-2-carboxylate] | < 25 | < 25 | < 25 |
| O=C(ON1C(=O)CCC1=O)N1CC2CN(Cc3ccc(F)cc3N3CCOCC3)CC2C1 (stereo not drawn) [Example 89, 2,5-Dioxopyrrolidin-1-yl 5-[[4-fluoro-2-(morpholin-4-yl)phenyl]methyl]-octahydropyrrolo[3,4-c]pyrrole-2-carboxylate] | < 25 | < 25 | < 25 |
| Cc1cccc(CN2CC3CN(C(=O)ON4C(=O)CCC4=O)CC3C2)c1N1CCN(C)CC1 (stereo not drawn) [Example 138, 2,5-dioxopyrrolidin-1-yl 5-[[3-methyl-2-(4-methylpiperazin-1-yl)phenyl]methyl]-octahydropyrrolo[3,4-c]pyrrole-2-carboxylate] | < 25 | < 25 | < 25 |
| O=C(OC(C(F)(F)F)C(F)(F)F)N1CC2CN(C(c3ccc(Cl)cc3)c3ccc(Cl)cc3)CC2C1 (stereo not drawn) [Example 8, 1,1,1,3,3,3-Hexafluoropropan-2-yl 5-[bis(4-chlorophenyl)methyl]-octahydropyrrolo[3,4-c]pyrrole-2-carboxylate] | 25 to 75 | < 25 | 25 to 75 |
| O=C(ON1C(=O)CCC1=O)N1CC2CN(Cc3ccc(Cl)cc3N3CCn4ncnc4C3)CC2C1 (stereo not drawn) [Example 108, 2,5-Dioxopyrrolidin-1-yl 5-(4-chloro-2-(5,6-dihydro-[1,2,4]triazolo[1,5-a]pyrazin-7(8H)-yl)benzyl)-hexahydropyrrolo[3,4-c]pyrrole-2(1H)-carboxylate] | < 25 | < 25 | < 25 |
| CC(=O)N1CCN(c2ccc(CN3CC4CN(C(=O)ON5C(=O)CCC5=O)CC4C3)c(F)c2)CC1 (stereo not drawn) [Example 101, 2,5-Dioxopyrrolidin-1-yl 5-[[4-(4-acetylpiperazin-1-yl)-2-fluorophenyl]methyl]-octahydropyrrolo[3,4-c]pyrrole-2-carboxylate] | < 25 | < 25 | < 25 |
